Measured values reported in patent publication US20250197387A1, “BCL-XL DEGRADERS AND USES THEREOF” (Kymera Therapeutics, Inc., priority 2021, published 2025).

Legend:
Type in all cases: cell-based
BCL-XL = molecular target: T1, BCL-XL (Homo sapiens, UniProt Q07817); test: Bcl-xL ELISA degradation in MOLT-4 cells, 6 h; conditions: for DC50: read-out: Bcl-xL ELISA in MOLT-4 degradation 6 h: Mean external-Abs DC50
T1 construct: endogenous in cells; host or cells: MOLT-4
Description: The letter codes for BCL-XL DC50 include: A (<0.01 μM); B (0.01-0.1 μM); C (>[…]); D (>0.5-1.0 μM); and E (>1.0 μM). The letter codes for Dmax % include A (>75%); B (50 to 75%); C (<50%).

Caki-2 cells = test: CTG (CellTiter-Glo) cell viability assay, Caki-2; conditions: Homo sapiens, 72 h, 3 day incubation, read-out: CTG Chempartner - Caki-2 3 day: Average external-IC50
Outline: (§1)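 Luminescence from CellTiter-Glo, read after 3 days of compound exposure at 37 °C, gave viability; IC50 values came from three-parameter logistic curves. Cells were plated at 10,000 per well and dosed over nine 1:3 steps topping at 10 μM.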

MOLT-4 cells = test: CTG (CellTiter-Glo) cell viability assay, MOLT-4; conditions: Homo sapiens, MOLT-4, 72 h, 3 day incubation, read-out: CTG Cell Viability Assay - MOLT-4 3 day: Average external-IC50
Outline: as §1

T1 sequence (Q07817 whole entry): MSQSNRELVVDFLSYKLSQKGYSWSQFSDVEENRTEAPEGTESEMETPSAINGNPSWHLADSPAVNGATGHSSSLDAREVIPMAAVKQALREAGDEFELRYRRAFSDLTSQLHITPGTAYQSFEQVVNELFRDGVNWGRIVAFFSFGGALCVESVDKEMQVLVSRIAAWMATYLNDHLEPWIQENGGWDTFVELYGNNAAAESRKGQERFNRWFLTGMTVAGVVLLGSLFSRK

| Structure (SMILES) | Dmax (BCL-XL) | DC50 (BCL-XL) | IC50 (Caki-2 cells) | IC50 (MOLT-4 cells) |
| --- | --- | --- | --- | --- |
| COc1nn(C)c2ccc([C@@H](C)NC(=O)[C@@H]3C[C@@H](O)CN3C(=O)[C@@H](NC(=O)CCCCCS(=O)(=O)NC(=O)c3nc(N4CCc5cccc(C(=O)Nc6nc7cccnc7s6)c5C4)ccc3-c3cnn(CC4CCCCC4)c3C)C(C)(C)C)cc12 [I-490] | > 75% | 0.1 to 0.5 µM | > 10 µM | 0.1 to 1 µM |
| Cc1cc(N(C)c2ccc(-c3cnn(CC45CC6CC(CC(C6)C4)C5)c3C)c(C(=O)NS(=O)(=O)CCCCCC(=O)N[C@H](C(=O)N3C[C@H](O)C[C@H]3C(=O)N[C@@H](C)c3ccc4c(c3)c(C)nn4C)C(C)(C)C)n2)nnc1Nc1nc2ccccc2s1 (single isomer, unassigned) [I-491] | > 75% | < 0.01 µM | > 10 µM | < 0.1 µM |
| Cc1ncsc1-c1ccc([C@H](C)NC(=O)[C@@H]2C[C@@H](O)CN2C(=O)[C@@H](NC(=O)CCCc2ccc(S(=O)(=O)NCc3nc(N4CCc5cccc(C(=O)Nc6nc7ccccc7s6)c5C4)ccc3-c3cnn(CC4CCCCC4)c3C)cc2)C(C)(C)C)cc1 [I-307] | < 50% | > 1 µM | > 10 µM | 1 to 3 µM |
| Cc1ncsc1-c1ccc([C@H](C)NC(=O)[C@@H]2C[C@@H](O)CN2C(=O)[C@@H](NC(=O)CCCCCS(=O)(=O)NC(=O)c2nc(N3CCc4cccc(C(=O)Nc5nc6c(F)cccc6s5)c4C3)ccc2-c2cnn(CC3CCCCC3)c2C)C(C)(C)C)cc1 [I-459] | > 75% | < 0.01 µM | > 10 µM | < 0.1 µM |
| C#Cc1ccc(CNC(=O)[C@@H]2C[C@@H](O)CN2C(=O)[C@@H](NC(=O)CCCCCS(=O)(=O)NC(=O)c2nc(N3CCc4cccc(C(=O)Nc5nc6cccnc6s5)c4C3)ccc2-c2cnn(CC3CCCCC3)c2C)C(C)(C)C)cc1 [I-352] | > 75% | < 0.01 µM | > 10 µM | < 0.1 µM |
| C#Cc1ccc(C2(NC(=O)[C@@H]3C[C@@H](O)CN3C(=O)[C@@H](NC(=O)CCCCCS(=O)(=O)NC(=O)c3nc(N(C)c4cc(C)c(Nc5nc6ccccc6s5)nn4)ccc3-c3cnn(CC45CC6CC(CC(C6)C4)C5)c3C)C(C)(C)C)CC2)cc1 [I-481] | > 75% | < 0.01 µM | > 10 µM | < 0.1 µM |
| COc1nn(C)c2ccc(CNC(=O)[C@@H]3C[C@@H](O)CN3C(=O)[C@@H](NC(=O)CCCCCS(=O)(=O)NC(=O)c3nc(N4CCc5cccc(C(=O)Nc6nc7cccnc7s6)c5C4)ccc3-c3cnn(CC4CCCCC4)c3C)C(C)(C)C)cc12 [I-483] | > 75% | 0.01 to 0.1 µM | > 10 µM | < 0.1 µM |
| Cc1ncsc1-c1ccc([C@H](C)NC(=O)[C@@H]2C[C@@H](O)CN2C(=O)[C@@H](NC(=O)C2CCN(C3CCN(S(=O)(=O)NC(=O)c4nc(N5CCc6cccc(C(=O)Nc7nc8ccccc8s7)c6C5)ccc4-c4cnn(CC5CCCCC5)c4C)CC3)CC2)C(C)(C)C)cc1 [I-308] | > 75% | 0.1 to 0.5 µM | 1 to 10 µM | < 0.1 µM |
| Cc1ncsc1-c1ccc([C@H](C)NC(=O)[C@@H]2C[C@@H](O)CN2C(=O)[C@H](NC(=O)CCCCCS(=O)(=O)NC(=O)c2nc(N3CCc4cccc(C(=O)Nc5nc6ccccc6s5)c4C3)ccc2-c2cnn(CC3CCCCC3)c2C)C(C)(C)CCOP(=O)(O)O)cc1 [I-416] | > 75% | 0.1 to 0.5 µM | > 10 µM | > 3 µM |
| C#Cc1ccc(CNC(=O)[C@@H]2C[C@@H](O)CN2C(=O)[C@@H](NC(=O)CCCCCS(=O)(=O)NC(=O)c2nc(N3CCc4cccc(C(=O)Nc5nc6cccnc6s5)c4C3)ccc2-c2cnn(CC3CCCC3)c2C)C(C)(C)C)cc1 [I-445] | > 75% | 0.01 to 0.1 µM | > 10 µM | 0.1 to 1 µM |
| Cc1ncsc1-c1ccc([C@H](C)NC(=O)[C@@H]2C[C@@H](O)CN2C(=O)[C@@H](NC(=O)C2CCN(c3ccc(S(=O)(=O)NC(=O)c4nc(N5CCc6cccc(C(=O)Nc7nc8ccccc8s7)c6C5)ccc4-c4cnn(CC5CCCCC5)c4C)cc3CC(=O)O)CC2)C(C)(C)C)cc1 [I-296] | 50 to 75% | 0.1 to 0.5 µM | 1 to 10 µM | 0.1 to 1 µM |
| Cc1ncsc1-c1ccc([C@H](C)NC(=O)[C@@H]2C[C@@H](O)CN2C(=O)[C@@H](NC(=O)C2CCN(c3ccc(S(=O)(=O)NC(=O)c4nc(N5CCc6cccc(C(=O)Nc7nc8ccccc8s7)c6C5)ccc4-c4cnn(CC5CCCCC5)c4C)cc3CO)CC2)C(C)(C)C)cc1 [I-316] | 50 to 75% | 0.1 to 0.5 µM | > 10 µM | 0.1 to 1 µM |
